Source: patent US12421212B2, “Substituted benzenecarboxamides as IL-17A modulators” (DiCE Alpha, Inc., priority 2019, dated 2025)

The molecules below were run against T1, IL-17A/A (Homo sapiens, UniProt Q16552) (assay: IL-17A/A HEK-Blue Cell Assay). Conditions: HEK-Blue IL-17A reporter cell line, SEAP readout at A630, 20 hours incubation with IL-17A/A; top concentration 10 uM, 1 uM or 0.3 uM.
T1 construct: purchased Genscript Z03228
T1 sequence (Q16552 24-155): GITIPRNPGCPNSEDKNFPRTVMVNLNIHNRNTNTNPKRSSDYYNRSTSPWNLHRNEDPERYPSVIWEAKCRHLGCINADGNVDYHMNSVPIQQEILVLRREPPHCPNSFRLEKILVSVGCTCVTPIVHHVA
Assay type: cell-based

In the case of `CCC(=O)N[C@@H](C(=O)N1CCN(C)CC1)[C@@H](C)c1ccc(NC(=O)[C@H](NC(=O)c2ccnn2CC)[C@H]2CC[C@H](C)CC2)c(F)c1` [Compound 541], the “IL-17A/A inhibition (pIC50)” value is reported as “X3b (compounds were evaluated up to 0.3 uM and inhibited activity at 0.3 uM by less than 20%)”.
With `CCC(=O)N[C@H](C(=O)N1CCN(C)CC1)[C@H](C)c1ccc(NC(=O)[C@@H](NC(=O)c2ccnn2CC)[C@H]2CC[C@H](C)CC2)c(F)c1` [Compound 542] the “IL-17A/A inhibition (pIC50)” value was “X3b (compounds were evaluated up to 0.3 uM and inhibited activity at 0.3 uM by less than 20%)”.
`CCC(=O)N[C@H](C(=O)N1CCN(C)CC1)[C@@H](C)c1ccc(NC(=O)[C@@H](NC(=O)c2ccnn2CC)[C@H]2CC[C@H](C)CC2)c(F)c1` [Compound 543] was tested, and the “IL-17A/A inhibition (pIC50)” value was “X3b (compounds were evaluated up to 0.3 uM and inhibited activity at 0.3 uM by less than 20%)”.
`CCC(=O)N[C@@H](C(=O)N1CCN(C)CC1)[C@H](C)c1ccc(NC(=O)[C@@H](NC(=O)c2ccnn2CC)[C@H]2CC[C@H](C)CC2)c(F)c1` [Compound 544] was tested, and the “IL-17A/A inhibition (pIC50)” value was “X3a (compounds were evaluated up to 0.3 uM and did not inhibit activity by >80%, however they showed some activity at 0.3 uM (less than 80% and more than 20%))”.
With `CCC(=O)N[C@@H](C(=O)N1CCN(C)CC1)[C@@H](C)c1ccc(NC(=O)[C@@H](NC(=O)c2cnon2)[C@H]2CC[C@H](C)CC2)c(F)c1` [Compound 547] the “IL-17A/A inhibition (pIC50)” value was “X3b (compounds were evaluated up to 0.3 uM and inhibited activity at 0.3 uM by less than 20%)”.
`C[C@@H](c1ccc(NC(=O)[C@@H](NC(=O)c2cnon2)[C@H]2CC[C@H](C)CC2)c(F)c1)[C@@H](NC(=O)c1cnns1)C(=O)N1CCN(C)CC1` [Compound 548] was tested, and the “IL-17A/A inhibition (pIC50)” value was “X2b (compounds were evaluated up to 1 uM and inhibited activity at 1 uM by less than 20%)”.
In the case of `CCC(=O)N[C@@H](C(=O)N1CCN(C)CC1)[C@@H](C)c1ccc(NC(=O)C(NC(=O)c2nonc2CC)C(CC)c2ccc(Cl)cc2)c(F)c1` (stereo partly drawn) [Compound 567], the “IL-17A/A inhibition (pIC50)” value is reported as “X2b (compounds were evaluated up to 1 uM and inhibited activity at 1 uM by less than 20%)”.
With `CCc1nonc1C(=O)N[C@H](C(=O)Nc1ccc([C@H](C)[C@@H](NC(=O)c2ncns2)C(=O)N2CCN(C)CC2)cc1F)[C@H]1CC[C@H](C)CC1` [Compound 575] the “IL-17A/A inhibition (pIC50)” value was “X3a (compounds were evaluated up to 0.3 uM and did not inhibit activity by >80%, however they showed some activity at 0.3 uM (less than 80% and more than 20%))”.
In the case of `CCc1nonc1C(=O)N[C@H](C(=O)Nc1ccc([C@H](C)[C@@H](NC(=O)c2ncccc2OC)C(=O)N2CCN(C)CC2)cc1F)[C@H]1CC[C@H](C)CC1` [Compound 578], the “IL-17A/A inhibition (pIC50)” value is reported as “X3b (compounds were evaluated up to 0.3 uM and inhibited activity at 0.3 uM by less than 20%)”.
With `CCC(=O)N[C@@H](C(=O)N1CC(n2ccnc2)C1)[C@@H](C)c1ccc(NC(=O)[C@@H](NC(=O)c2nonc2CC)[C@H]2CC[C@H](C)CC2)c(F)c1` [Compound 580] the “IL-17A/A inhibition (pIC50)” value was “X3a (compounds were evaluated up to 0.3 uM and did not inhibit activity by >80%, however they showed some activity at 0.3 uM (less than 80% and more than 20%))”.
With `CCC(=O)N[C@@H](C(=O)N1CCN(C)CC1)[C@@H](C)c1ccc(NC(=O)C(NC(=O)c2ccnn2CC)C(C)C2CCC(C)CC2)c(F)c1` (stereo partly drawn) [Compound 612] the “IL-17A/A inhibition (pIC50)” value was “X2b (compounds were evaluated up to 1 uM and inhibited activity at 1 uM by less than 20%)”.

Same assay, conditions: HEK-Blue IL-17A reporter cell line, SEAP readout at A630, 20 hours incubation with IL-17A/A; top concentration 10 uM, 1 uM or 0.3 uM; read-out: IL-17A/A inhibition (pIC50) (converted)

`CCC(=O)N[C@@H](C(=O)N1CCN(C)CC1)[C@@H](C)c1ccc(NC(=O)[C@@H](NC(=O)c2ccnn2C2COC2)[C@H]2CC[C@H](C)CC2)c(F)c1` [Compound 545] and `C[C@@H](c1ccc(NC(=O)[C@@H](NC(=O)c2ccnn2C2COC2)[C@H]2CC[C@H](C)CC2)c(F)c1)[C@@H](NC(=O)c1cnns1)C(=O)N1CCN(C)CC1` [Compound 546] fall in the same range of IC50: 10 to 100 nM for the first, 10 to 100 nM for the second.

First: CCC(=O)N[C@@H](C(=O)N1CCN(C)CC1)[C@@H](C)c1ccc(NC(=O)[C@@H](NC(=O)c2nonc2C(C)C)[C@H]2CC[C@H](C)CC2)c(F)c1 [Compound 549]
Second: CCC(=O)N[C@@H](C(=O)N1CCN(C)CC1)[C@@H](C)c1ccc(NC(=O)[C@@H](NC(=O)c2nonc2C)[C@H]2CC[C@H](C)CC2)c(F)c1 [Compound 582]
The IC50 of the first is lower: under 10 nM for the first, 10 to 100 nM for the second.

`CC(C)c1nonc1C(=O)N[C@H](C(=O)Nc1ccc([C@H](C)[C@@H](NC(=O)c2cnns2)C(=O)N2CCN(C)CC2)cc1F)[C@H]1CC[C@H](C)CC1` [Compound 550] and `Cc1nonc1C(=O)N[C@H](C(=O)Nc1ccc([C@H](C)[C@@H](NC(=O)c2cnns2)C(=O)N2CCN(C)CC2)cc1F)[C@H]1CC[C@H](C)CC1` [Compound 583] cannot be ordered by IC50: under 10 nM for the first, under 10 nM for the second.

`CCC(=O)N[C@@H](C(=O)N1CCN(C)CC1)[C@@H](C)c1ccc(NC(=O)[C@@H](NC(=O)c2nonc2OC)[C@H]2CC[C@H](C)CC2)c(F)c1` [Compound 551] and `COc1nonc1C(=O)N[C@H](C(=O)Nc1ccc([C@H](C)[C@@H](NC(=O)c2cnns2)C(=O)N2CCN(C)CC2)cc1F)[C@H]1CC[C@H](C)CC1` [Compound 552] fall in the same range of IC50: 10 to 100 nM for the first, 10 to 100 nM for the second.

`CCC(=O)N[C@@H](C(=O)N1CCN(C)CC1)[C@@H](C)c1ccc(NC(=O)C(NC(=O)c2nonc2CC)C(CC)c2ccc(Cl)cc2)c(F)c1` (stereo partly drawn) [Compound 566] and `CCC(=O)N[C@@H](C(=O)N1CCN(C)CC1)[C@@H](C)c1ccc(NC(=O)[C@@H](NC(=O)c2nonc2CC)[C@H](OC)c2ccc(F)cc2)c(F)c1` [Compound 611] fall in the same range of IC50: 10 to 100 nM for the first, 10 to 100 nM for the second.

`CCC(=O)N[C@@H](C(=O)N1CCN(C)CC1)C(OC)c1ccc(NC(=O)[C@@H](NC(=O)c2ccnn2CC)[C@H]2CC[C@H](C)CC2)c(F)c1` (stereo partly drawn) [Compound 572] and `CCC(=O)N[C@H](Cc1ccc(NC(=O)[C@@H](NC(=O)c2ccnn2CC)[C@H]2CC[C@H](C)CC2)c(F)c1)C(=O)N1CCN(C)CC1` [Compound 627] fall in the same range of IC50: 100 to 10000 nM for the first, 100 to 10000 nM for the second.

First: [2H]C1([2H])N(C)C([2H])([2H])C([2H])([2H])N(C(=O)[C@H](NC(=O)CC)[C@@H](C)c2ccc(NC(=O)[C@@H](NC(=O)c3ccnn3CC)[C@H]3CC[C@H](C)CC3)c(F)c2)C1([2H])[2H] [Compound 573]
Second: CCC(=O)N[C@@H](C(=O)N1CCN(C)CC1)[C@@H](C)c1ccc(NC(=O)[C@@H](NC(=O)c2ccnn2CC)[C@H](C)[C@H]2CC[C@H](C)CC2)c(F)c1 [Compound 587]
The IC50 of the first is lower: under 10 nM for the first, 10 to 100 nM for the second.

`CCc1nonc1C(=O)N[C@H](C(=O)Nc1ccc([C@H](C)[C@@H](NC(=O)N(CC)C2CC2)C(=O)N2CCN(C)CC2)cc1F)[C@H]1CC[C@H](C)CC1` [Compound 574] and `CCC(=O)N[C@@H](C(=O)N1CCN(C)CC1)[C@@H](C)c1ccc(NC(=O)[C@@H](NC(=O)c2nonc2CC)[C@H](C)[C@H]2CC[C@H](C)CC2)c(F)c1` [Compound 586] cannot be ordered by IC50: under 10 nM for the first, under 10 nM for the second.

`CCc1nonc1C(=O)N[C@H](C(=O)Nc1ccc([C@H](C)[C@@H](NC(=O)c2cccnc2OC)C(=O)N2CCN(C)CC2)cc1F)[C@H]1CC[C@H](C)CC1` [Compound 576] and `CCc1nonc1C(=O)N[C@H](C(=O)Nc1ccc([C@H](C)[C@@H](NC(=O)c2c(OC)cnn2CC)C(=O)N2CCN(C)CC2)cc1F)[C@H]1CC[C@H](C)CC1` [Compound 577] fall in the same range of IC50: 10 to 100 nM for the first, 10 to 100 nM for the second.

Compared with `CCc1nonc1C(=O)N[C@H](C(=O)Nc1ccc([C@H](C)[C@@H](NC(=O)c2ccnc3c2OCCO3)C(=O)N2CCN(C)CC2)cc1F)[C@H]1CC[C@H](C)CC1` [Compound 579], `COc1ccc(C(F)(F)C(=O)N[C@H](C(=O)Nc2ccc([C@H](C)[C@@H](NC(=O)c3cnns3)C(=O)N3CCN(C)CC3)cc2F)[C@H]2CC[C@H](C)CC2)cn1` [Compound 620] is lower in IC50: 10 to 100 nM for the first, under 10 nM for the second.

Compared with `CCn1nnnc1C(=O)N[C@H](C(=O)Nc1ccc([C@H](C)[C@@H](NC(=O)N(C)C2CC2)C(=O)N2CCN(C)[C@H](C)C2)cc1F)[C@H]1CC[C@H](C)CC1` [Compound 604], `CCn1nnnc1C(=O)N[C@H](C(=O)Nc1ccc([C@H](C)[C@@H](NC(=O)C(C)(F)F)C(=O)N2CCN(C)[C@H](C)C2)cc1F)[C@H]1CC[C@H](C)CC1` [Compound 605] is higher in IC50: under 10 nM for the first, 10 to 100 nM for the second.

First: CCC(=O)N[C@@H](C(=O)N1CCN(C)CC1)[C@@H](C)c1ccc(NC(=O)C(NC(=O)c2nonc2CC)C(C)C2CCC(F)(F)CC2)c(F)c1 (stereo partly drawn) [Compound 607]
Second: CCC(=O)N[C@@H](C(=O)N1CCN(C)CC1)[C@@H](C)c1ccc(NC(=O)[C@@H](NC(=O)C(F)(F)C23CC(C2)C3)C2CCCCC2)c(F)c1 [Compound 625]
The IC50 of the first is lower: 10 to 100 nM for the first, 100 to 10000 nM for the second.

`CCC(=O)N[C@@H](C(=O)N1CCN(C)CC1)[C@@H](C)c1ccc(NC(=O)[C@@H](NC(=O)c2ccnn2CC)[C@H](OC)c2ccc(F)cc2)c(F)c1` [Compound 610] and `CCn1nccc1C(=O)N[C@H](C(=O)Nc1ccc([C@H](C)[C@@H](NC(=O)c2cc(C#N)cs2)C(=O)N2CCN(C)CC2)cc1F)C1CCCCC1` [Compound 624] fall in the same range of IC50: 100 to 10000 nM for the first, 100 to 10000 nM for the second.

`COc1ncc(C(F)(F)C(=O)N[C@H](C(=O)Nc2ccc([C@H](C)[C@@H](NC(=O)c3cnns3)C(=O)N3CCN(C)CC3)cc2F)[C@H]2CC[C@H](C)CC2)cn1` [Compound 621] and `COc1ccc(C(F)(F)C(=O)N[C@H](C(=O)Nc2ccc([C@H](C)[C@@H](NC(=O)c3cnsc3)C(=O)N3CCN(C)CC3)cc2F)[C@H]2CC[C@H](C)CC2)cn1` [Compound 622] fall in the same range of IC50: 10 to 100 nM for the first, 10 to 100 nM for the second.

`CCn1nccc1C(=O)N[C@H](C(=O)Nc1ccc(C[C@@H](NC(=O)c2ccnn2-c2ccc(=O)[nH]c2)C(=O)N2CCN(C)CC2)cc1F)C1CCCCC1` [Compound 623] and `CCn1nccc1C(=O)N[C@H](C(=O)Nc1ccc([C@H](C)[C@@H](NC(=O)NC2CCC2)C(=O)N2CCN(C)CC2)cc1F)C1CCCCC1` [Compound 628] fall in the same range of IC50: 100 to 10000 nM for the first, 100 to 10000 nM for the second.

For `CCC(=O)N[C@@H](C(=O)N1CCN(C)CC1)[C@@H](C)c1ccc(NC(=O)[C@@H](NC(=O)C(=O)c2ccc(NS(C)(=O)=O)nc2)C2CCCCCC2)c(F)c1` [Compound 626], the IC50 was 100 to 10000 nM.
